BindingDB's records for patent WO2025054369 (NICO Therapeutics, 2025)

Target: T1, NAD(+) hydrolase SARM1 (Homo sapiens, UniProt Q6SZW1)
T1 sequence (Q6SZW1 whole entry): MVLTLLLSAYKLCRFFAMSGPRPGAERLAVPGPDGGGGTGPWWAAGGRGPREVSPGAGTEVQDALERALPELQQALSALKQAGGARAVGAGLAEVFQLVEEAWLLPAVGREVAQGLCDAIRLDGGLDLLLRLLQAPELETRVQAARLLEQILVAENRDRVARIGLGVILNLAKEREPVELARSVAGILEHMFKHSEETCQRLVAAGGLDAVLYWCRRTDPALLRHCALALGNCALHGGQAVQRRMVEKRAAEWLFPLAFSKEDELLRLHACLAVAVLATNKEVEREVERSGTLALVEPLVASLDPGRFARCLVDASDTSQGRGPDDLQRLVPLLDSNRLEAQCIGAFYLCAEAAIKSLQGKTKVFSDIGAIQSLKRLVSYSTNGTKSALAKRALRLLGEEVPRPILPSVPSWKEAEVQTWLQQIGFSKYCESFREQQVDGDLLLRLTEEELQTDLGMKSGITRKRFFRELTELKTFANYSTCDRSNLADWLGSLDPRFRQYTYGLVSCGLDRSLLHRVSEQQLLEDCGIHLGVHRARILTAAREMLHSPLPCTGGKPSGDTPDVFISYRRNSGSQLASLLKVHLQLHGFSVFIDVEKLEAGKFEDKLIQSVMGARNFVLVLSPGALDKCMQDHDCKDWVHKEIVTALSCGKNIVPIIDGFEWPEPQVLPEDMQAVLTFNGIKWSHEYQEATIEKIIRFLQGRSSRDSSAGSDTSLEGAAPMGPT
Assay: Biochemical Assay of the Compounds
Procedure: Preparation of full-length SARM1 (FL-SARM1) lysate: HEK293T cells (ATCC: CRL-3216) were grown on 150 mm TC-treated dishes to 80-90% confluency in complete DMEM (DMEM (Thermo Fisher: 11965175) supplemented with 10% HI-FBS (VWR: 10802-772), 1x Pen/Strep (Thermo Fisher: 15140122), 1x NEAA (Thermo Fisher: 1140050), 1x glutamax (Thermo Fisher: 35050061), and 1 mM sodium pyruvate (Thermo Fisher: 11360070)) at 37 °C and 5% CO2. One hour prior to transfection, the media was replaced with fresh, 37 °C complete DMEM (20 mL per one 150 mm dish) supplemented with additional 10mM glucose (Alfa Aesar AAJ60067EQE). Per one 150 mm dish, 30 µg FL-SARM1 (SEQ. ID.1; cloned in-house) plasmid was dissolved in 1 mL DMEM at ambient temperature and were mixed by inverting the tube 8-10 times.90 µL of GenJet™ in vitro DNA transfection reagent (Ver2) was dissolved in 1 mL DMEM at ambient temperature and were mixed by inverting the tube 8-10 times. The plasmid and transfection agent solutions were combined, mixed by 8-10 inversions and incubated for 10 minutes at ambient temperature.2 mL of this transfection mixture was added to each dish containing HEK293T cells as prepared above followed by a gentle mixing of 4-5 horizontal rotations. The dishes were incubated at 37 °C and 5% CO2 for 24 h. The dishes were removed from the incubator, the medium was aspirated and the cells were scraped off using cell scrapers in ice-cold 1x PBS (5 mL/dish, Thermo Fisher Scientific 10010023). The collected cells were centrifuged at 300 g for 5 minutes at 4 °C. The supernatant was aspirated and the pellet was frozen at -80 °C until needed. The cell pellet from 30 dishes was dissolved in 30 mL 1x PBS supplemented with 4 tablets of Complete, Mini EDTA-free protease inhibitor cocktail at 4 °C. This mixture was sonicated on ice for 10 minutes at 50% amplitude with a 1 second on/1 second off interval using a Model 120 sonicator (Thermo Fisher Scientific, FB120110). The lysate was centrifuged at 16000 g for 10 minutes at 4 °C.

| Compound | IC50 [nM] |
| --- | --- |
| N#C[C@H]1CC[C@@H]1c1cc(NC(=O)N2C3CC2CC(C(F)(F)F)C3)ccc1C(F)(F)F (stereo partly drawn) [WO2025054369, Example 54] | < 1000 |
| N#C[C@@H]1CC[C@H]1c1cc(NC(=O)N2C3CC2CC(C(F)(F)F)C3)ccc1C(F)(F)F (stereo partly drawn) [WO2025054369, Example 55] | < 1000 |
| N#C[C@H]1CC[C@H]1c1cc(NC(=O)N2C3CC2CC(C(F)(F)F)C3)ccc1Cl (stereo partly drawn) [WO2025054369, Example 56] | 5500 |
| Cc1nnc([C@]23CCC[C@H](C2)N3C(=O)Nc2ccc(Cl)c(C3CCC3)c2)o1 [WO2025054369, Example 58] | > 10000 |
| Cc1nnc([C@@]23CCC[C@@H](C2)N3C(=O)Nc2ccc(Cl)c(C3CCC3)c2)o1 [WO2025054369, Example 59] | 5500 |
| CC1CC2CC(C1)N2C(=O)Nc1ccc(Cl)c([C@@H]2CCC[C@@H]2C#N)c1 (stereo partly drawn) [WO2025054369, Example 60] | < 1000 |
| CC1CC2CC(C1)N2C(=O)Nc1ccc(Cl)c([C@H]2CCC[C@H]2C#N)c1 (stereo partly drawn) [WO2025054369, Example 61] | < 1000 |
| CC1CC2CC(C1)N2C(=O)Nc1ccc(Cl)c([C@H]2CCC[C@@H]2C#N)c1 (stereo partly drawn) [WO2025054369, Example 62] | < 1000 |
| CC1CC2CC(C1)N2C(=O)Nc1ccc(Cl)c([C@@H]2CCC[C@H]2C#N)c1 (stereo partly drawn) [WO2025054369, Example 63] | < 1000 |
| C[C@]1(O)CC[C@H](c2cc(NC(=O)N3C4CC3CC(C(F)(F)F)C4)ccc2Cl)C1 (stereo partly drawn) [WO2025054369, Example 64] | < 1000 |
| C[C@@]1(O)CC[C@@H](c2cc(NC(=O)N3C4CC3CC(C(F)(F)F)C4)ccc2Cl)C1 (stereo partly drawn) [WO2025054369, Example 65] | 5500 |
| C[C@]1(O)CC[C@@H](c2cc(NC(=O)N3C4CC3CC(C(F)(F)F)C4)ccc2Cl)C1 (stereo partly drawn) [WO2025054369, Example 66] | < 1000 |
| C[C@@]1(O)CC[C@H](c2cc(NC(=O)N3C4CC3CC(C(F)(F)F)C4)ccc2Cl)C1 (stereo partly drawn) [WO2025054369, Example 67] | < 1000 |
| Cc1nnc([C@@]23C[C@@H](C[C@@H](C(F)(F)F)C2)N3C(=O)Nc2ccc(Cl)c(C3CCC3)c2)o1 [WO2025054369, Example 68] | < 1000 |
| Cc1nnc([C@]23C[C@H](C[C@H](C(F)(F)F)C2)N3C(=O)Nc2ccc(Cl)c(C3CCC3)c2)o1 [WO2025054369, Example 69] | > 10000 |
| Cc1nnc([C@@]23C[C@@H](C)C[C@@H](C2)N3C(=O)Nc2ccc(Cl)c(N3CC(O)C3)c2)o1 [WO2025054369, Example 70] | < 1000 |
| CC1CC2CC(C1)N2C(=O)Nc1ccc(Cl)c(N2CC[C@@H]2C#N)c1 (stereo partly drawn) [WO2025054369, Example 71] | < 1000 |
| CC1CC2CC(C1)N2C(=O)Nc1ccc(Cl)c(N2CC[C@H]2C#N)c1 (stereo partly drawn) [WO2025054369, Example 72] | < 1000 |
| CC1(O)CC(c2cc(NC(=O)N3C4CC3CC(C(F)(F)F)C4)ccc2CN)C1 (stereo not drawn) [WO2025054369, Example 73] | 5500 |
| CC1CC2CC(C1)N2C(=O)Nc1ccc(Cl)c(C2CC(C)(OCCO)C2)c1 (stereo not drawn) [WO2025054369, Example 74] | < 1000 |
| CC1CC2CC(C1)N2C(=O)Nc1ccc(C(F)(F)F)c(C2CCC2)c1 (stereo not drawn) [WO2025054369, Example 75] | < 1000 |
| CC1CC2CC(C1)N2C(=O)Nc1ccc(Cl)c(C2CCC2(F)F)c1 (stereo not drawn) [WO2025054369, Example 76] | < 1000 |

| Compound | IC50 [nM] |
| --- | --- |
| CC1CC2CC(C1)N2C(=O)Nc1ccc(Cl)c(C2CC(=O)C2)c1 (stereo not drawn) [WO2025054369, Example 77] | < 1000 |
| CC1CC2CC(C1)N2C(=O)Nc1ccc(Cl)c(C2CC(O)C2)c1 (stereo not drawn) [WO2025054369, Example 78] | < 1000 |
| COC(C)(C)c1cc(NC(=O)N2C3CC(C)CC2C3)ccc1Cl (stereo not drawn) [WO2025054369, Example 79] | 5500 |
| Cc1noc(C23CC(C)CC(C2)N3C(=O)Nc2ccc(Cl)c(C3CCC3)c2)n1 (stereo not drawn) [WO2025054369, Example 80] | < 1000 |
| CC1CC2CC(C1)N2C(=O)Nc1ccc(Cl)c(C(C)(C)O)c1 (stereo not drawn) [WO2025054369, Example 81] | 5500 |
| Cc1noc(C23CC(C)CC(C2)N3C(=O)Nc2ccc(Cl)c(C3CCCC3)c2)n1 (stereo not drawn) [WO2025054369, Example 82] | < 1000 |
| CC1CC2CC(C1)N2C(=O)Nc1ccc(Cl)c(C2CCC2=O)c1 (stereo not drawn) [WO2025054369, Example 83] | < 1000 |
| CC1CC2CC(C1)N2C(=O)Nc1ccc(Cl)c(N2CCC2CF)c1 (stereo not drawn) [WO2025054369, Example 84] | < 1000 |
| CC1CC2CC(C1)N2C(=O)Nc1ccc(Cl)c(N2CC(OCCO)C2)c1 (stereo not drawn) [WO2025054369, Example 85] | 5500 |
| CC1CC2CC(C1)N2C(=O)Nc1ccc(Cl)c(N2CC(OCCN)C2)c1 (stereo not drawn) [WO2025054369, Example 86] | > 10000 |
| CC1CC2CC(C1)N2C(=O)Nc1ccc(Cl)c(N2CC[C@@H](O)C2)c1 (stereo partly drawn) [WO2025054369, Example 87] | < 1000 |
| CC1CC2CC(C1)N2C(=O)Nc1ccc(Cl)c(N2CC[C@H](O)C2)c1 (stereo partly drawn) [WO2025054369, Example 88] | < 1000 |
| O=C(Nc1ccc(Cl)c(N2CC(O)C2)c1)N1C2CC1CC(C(F)(F)F)C2 (stereo not drawn) [WO2025054369, Example 89] | < 1000 |
| CC1CC2CC(C1)N2C(=O)Nc1ccc(C(F)(F)F)c(N2CC(O)C2)c1 (stereo not drawn) [WO2025054369, Example 90] | < 1000 |
| C[C@@H]1C[C@@H]2C[C@H](C1)N2C(=O)Nc1ccc(Cl)c(N2CC(C#N)C2)c1 [WO2025054369, Example 91] | < 1000 |
| C[C@@H]1C[C@@H]2C[C@H](C1)N2C(=O)Nc1ccc(Cl)c(N2CC(O)C2)c1 [WO2025054369, Example 92] | < 1000 |
| C[C@@H]1C[C@@H]2C[C@H](C1)N2C(=O)Nc1ccc(Cl)c(N2CCCC2=O)c1 [WO2025054369, Example 93] | 5500 |
| C[C@@H]1C[C@@H]2C[C@H](C1)N2C(=O)Nc1ccc(Cl)c(N2CCOC2=O)c1 [WO2025054369, Example 94] | 5500 |
| C[C@@H]1C[C@@H]2C[C@H](C1)N2C(=O)Nc1ccc(Cl)c(N2CCC2)c1 [WO2025054369, Example 95] | < 1000 |
| C[C@@H]1C[C@@H]2C[C@H](C1)N2C(=O)Nc1ccc(Cl)c(N2CCNC2=O)c1 [WO2025054369, Example 96] | < 1000 |
| Cc1ccc(NC(=O)N2C3CCCC2C3)cc1N1CCN(C)C1=O [WO2025054369, Example 97] | 5500 |
